Test results published in paper PMC11904993, “Humanized Candida and NanoBiT Assays Expedite Discovery of Bdf1 Bromodomain Inhibitors With Antifungal Potential” (Advanced Science, 2025).
Where “and” joins values, the source holds several entries; their conditions need not be identical. Equal entries are not always repeated. Where two headings read alike, the source gives them in different places.

Tests used:
[1] = tested on: C. albicans expressing humanized Bdf1; assay: Galleria fungal infection model, humanized strain; type: in vivo, Galleria mellonella; set-up: key to survival event of one larva (1 = death 0 = no death): 1 = death; 0 = no death; conditions: for survival event of one larva (1 = death 0 = no death): Bdf1-hBD* strain
Experimental: Galleria mellonella larvae were purchased from Decathlon (La Tronche, France). They were selected in the late larval stages weighing between 300 and 400 mg. Groups of 10 larvae were injected into the right or left last pro‐leg with 10 µl of either PBS, C. albicans suspensions or antifungal drug using an insulin syringe (BDUltra‐Fine 0.3 ml). C. albicans suspensions of the WT and humanized Bdf1 strains were adjusted to 10^6 cells larva^−1. Antifungal drugs (anidulafungin 5 mg kg^−1 or I‐BET726 66 or 44 mg kg^−1) were injected once 30 min before fungal infection. An infected control group received the C. albicans inoculum and the solvent of the drug. A non‐infected control group received only PBS. After inoculation, larvae were placed in Petri dishes and incubated in the dark at 37 °C. The larvae were monitored for 5 days, and survival outcome was determined. For experiments performed at the lower (44 mg kg^−1) dose of IBET‐726, the difference in protection against infection with humanized versus WT C. albicans strains was more evident using the survival data at 40 h rather than at 100 h post‐infection. Larvae were considered dead when no response was observed following touch. All experiments were performed at least 3 times independently. The significance of survival was assessed by a Log‐rank (Mantel‐Cox) test in GraphPad Prism 10.

C. auris = assay: Growth in liquid media; type: cell-based; conditions: Fig 5C; for Growth (%): C. auris
Experimental: (§1) Strains were presented in Table S8 (Supporting Information). Cells from a single colony were diluted in 0.85% NaCl before being counted using a Neubauer chamber. They were diluted to a final concentration of 6500 cells mL^−1 per well for all clinical strains of C. albicans and C. glabrata; 65 000 cells mL^−1 per well for C. auris; 13 500 cells mL^−1 per well for C. parapsilosis; 3375 cells mL^−1 per well for C. krusei and 1687.5 cells mL^−1 per well for C. tropicalis, in a sterile 96‐well plate. Cells were then grown in SC medium with or without chemical compounds at 30 °C with regular shaking. The significance of growth defects was assessed using Holm‐Sidak method by GraphPad Prism 10.

C. tropicalis = assay: Growth in liquid media; type: cell-based; conditions: Fig 5C; for Growth (%): C. tropicalis
Experimental: as §1

C. krusei = assay: Growth in liquid media; type: cell-based; conditions: Fig 5C
Experimental: as §1

C. albicans = assay: Growth of reference and clinical strains in liquid media; type: cell-based; conditions: for EC50: Candida albicans
Experimental: as §1

C. glabrata = assay: as above; type: cell-based; conditions: for Growth (%): C. glabrata; for EC50: Nakaseomyces glabratus
Experimental: as §1

[2] = tested on: C. glabrata strains (WT, pdr1∆ or PDR1 rescue); assay: Growth assays to assess compound efflux; type: cell-based; conditions: for growth relative to Solvent = 100 (Figure S10B): compound 50 µM, three replicates
Experimental: Cells from a single colony were diluted in 0.85% NaCl before being counted using a Neubauer chamber. […] The effect of fluconazole was tested by titration on these strains under similar conditions.

Structure (SMILES): CC(=O)N1c2ccc(-c3ccc(C(=O)O)cc3)cc2C(Nc2ccc(Cl)cc2)CC1C (stereo not shown) [I-BET726]
- protection against infection ([1]; 44 mg kg^−1, humanized strain, p = 0.0115, Mantel‐Cox test): significant protection
- survival of infected larvae ([1]; 66 mg kg^−1, injected once 30 min before infection, humanized strain): ≈ 100 h
- survival event of one larva (1 = death 0 = no death) ([1]; Figure 6C, Time 8 hours): 1
- survival event of one larva (1 = death 0 = no death) ([1]; Figure 6C, Time 33 hours): 1
- survival event of one larva (1 = death 0 = no death) ([1]; Figure 6C, Time 57 hours): 1
- survival event of one larva (1 = death 0 = no death) ([1]; Figure 6C, Time 70 hours): 1
- survival event of one larva (1 = death 0 = no death) ([1]; Figure 6D, Time 27 hours): 1
- survival event of one larva (1 = death 0 = no death) ([1]; Figure 6D, Time 41 hours): 1 and 0
- Growth (%) (C. auris; 1.5625 µM): 91% and 92% and 90%
- Growth (%) (C. auris; 3.125 µM): 85% and 86% and 87%
- Growth (%) (C. auris; 25 µM): 73% and 79%
- EC50 (C. auris; Candidozyma auris): > 50 µM
- Growth (%) (C. tropicalis; 1.5625 µM): 85% and 87% and 84%
- Growth (%) (C. tropicalis; 3.125 µM): 76% and 75%
- Growth (%) (C. tropicalis; 25 µM): 31% and 40% and 34%
- EC50 (C. tropicalis; Candida tropicalis): 8.8 ± 1.4 µM
- Growth (%) (C. krusei; 1.5625 µM): 97% and 93%
- Growth (%) (C. krusei; 3.125 µM): 102% and 92% and 91%
- Growth (%) (C. krusei; 25 µM): 103% and 86% and 91%
- Growth (%) (C. albicans; C. albicans, 1.5625 µM, Fig 5C): 81% and 83% and 74%
- Growth (%) (C. albicans; C. albicans, 3.125 µM, Fig 5C): 66% and 63% and 57%
- Growth (%) (C. albicans; C. albicans, 25 µM, Fig 5C): 17% and 23% and 20%
- Growth (%) (C. albicans; C. albicans, 25 µM, Fig 5E): 17% and 23% and 20%
- EC50 (C. albicans; ATCC90028, Table S5, C. albicans ATCC90028, WT, read-out: EC50 growth inhibition): 4.25 ± 0.47 µM
- EC50 (C. albicans; Fig 5C, read-out: EC50 (μM), C. albicans): 4.3 ± 0.5 µM
- EC50 (C. albicans; Table S5, C. albicans CagR, echinocandin-resistant, not characterized, read-out: EC50 growth inhibition): 4.14 ± 0.48 µM
- EC50 (C. albicans; all eight azole- and echinocandin-resistant C. albicans clinical isolates, read-out: EC50 growth inhibition): 5 to 10 µM
- EC50 (C. albicans; read-out: EC50 growth inhibition, Table S5, C. albicans AF1, echinocandin-resistant, Fks1-HS1 (S645P)): 7.13 ± 1.48 µM
- EC50 (C. albicans; read-out: EC50 growth inhibition, Table S5, C. albicans AF2, echinocandin-resistant, Fks1-HS1 (S645P)): 4.59 ± 0.95 µM
- EC50 (C. albicans; read-out: EC50 growth inhibition, Table S5, C. albicans AF3, echinocandin-resistant, Fks1-HS1 (S645P)): 6.83 ± 0.26 µM
- EC50 (C. albicans; read-out: EC50 growth inhibition, Table S5, C. albicans CAAL74, fluconazole-resistant, Erg11 (Y132F, E266D, G448V, V488I)): 5.87 ± 1.03 µM
- EC50 (C. albicans; read-out: EC50 growth inhibition, Table S5, C. albicans DSY292, azole-resistant, Erg11 (Y132H, G464S, R467K)): 3.07 ± 0.26 µM
- EC50 (C. albicans; read-out: EC50 growth inhibition, Table S5, C. albicans DSY296, azole-resistant, Erg11 (G129A, G464S, G450E), Tac1 (N977D)): 7.36 ± 0.76 µM
- EC50 (C. albicans; read-out: EC50 growth inhibition, Table S5, C. albicans DSY2323, azole-resistant, Erg11 (S405F), Tac1 (G980E)): 11.5 ± 1.7 µM
- Growth (%) (C. albicans; strain AF1, 25 µM, Fig 5E): 34% and 31% and 28%
- Growth (%) (C. albicans; strain AF2, 25 µM, Fig 5E): 26% and 28% and 29%
- Growth (%) (C. albicans; strain AF3, 25 µM, Fig 5E): 26% and 25% and 28%
- Growth (%) (C. albicans; strain CAAL74, 3.13 µM, Fig 5D): 67% and 74% and 60%
- Growth (%) (C. albicans; strain CagR, 25 µM, Fig 5E): 18% and 12%
- Growth (%) (C. albicans; strain DSY292, 0.78 µM, Fig 5D): 84% and 81% and 86%
- Growth (%) (C. albicans; strain DSY292, 3.13 µM, Fig 5D): 55% and 51%
- Growth (%) (C. albicans; strain DSY296, 0.78 µM, Fig 5D): 97% and 88% and 92%
- Growth (%) (C. albicans; strain DSY296, 3.13 µM, Fig 5D): 71% and 66% and 72%
- Growth (%) (C. albicans; strain DSY2323, 3.13 µM, Fig 5D): 85% and 88% and 76%
- Growth (%) (C. glabrata; 1.5625 µM, Fig 5C): 91% and 84% and 88%
- Growth (%) (C. glabrata; 3.125 µM, Fig 5C): 88% and 77% and 93%
- Growth (%) (C. glabrata; 25 µM, Fig 5C): 62% and 60% and 75%
- EC50 (C. glabrata; read-out: EC50 growth inhibition, Table S5, C. glabrata DSY565, azole-resistant, Pdr1 (L280F)): 1.14 ± 0.62 µM
- EC50 (C. glabrata; read-out: EC50 growth inhibition, Table S5, C. glabrata HAB1, azole-resistant, Pdr1 (T370I)): 1.66 ± 0.56 µM
- EC50 (C. glabrata; Fig 5C, read-out: EC50 (μM), C. glabrata): 12 ± 5.6 µM
- EC50 (C. glabrata; Table S5, C. glabrata ATCC2001, WT, read-out: EC50 growth inhibition): 1.52 ± 0.44 µM

Structure (SMILES): Cc1ccc(-c2nnc(C)c(NCc3ccc(C)o3)n2)cc1 [Compound 24c, 6‐methyl‐N‐((5‐methylfuran‐2‐yl)methyl)‐3‐(p‐tolyl)‐1,2,4‐triazin‐5‐amine]
- activity against PDR1 deletion strain versus WT/rescue ([2]; 50 µM (I-BET726 1 µM), 20 h): unaffected
- growth relative to Solvent = 100 (Figure S10B) ([2]; PDR1 Rescue): 76.2272 and 100 and 72.1057
- growth relative to Solvent = 100 (Figure S10B) ([2]; WT): 69.2689 and 72.9849 and 92.6631
- growth relative to Solvent = 100 (Figure S10B) ([2]; pdr1∆): 52.2261 and 60.5623 and 93.6717
